Test results: patent US11058717B2, “Application of substances containing AuCs in preparing medicine for preventing and treating Alzheimer's disease” (Shenzhen Profound-View Pharma Tech Co., Ltd, priority 2017, dated 2021)

Columns and labels:
Aβ(1-40) = molecular target: T1, Aβ(1-40) (Homo sapiens, UniProt P05067); assay: AFM topography of Aβ(1-40) after coincubation for 48 h; type: biochemical; conditions: coincubated for 48 h
T1 construct: Freeze-dried powder of amyloid polypeptide Aβ(1-40) (Invitrogen Corp.); purchased Invitrogen Corp
T1 sequence (P05067 672-711 limits assumed): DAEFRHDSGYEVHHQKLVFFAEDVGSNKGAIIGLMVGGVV
Method: Panel A is the AFM topography after Aβ(1-40) was incubated alone for 48 h. Panel B is an AFM topography after Aβ(1-40) was coincubated with L-NIBC for 48 h. Panel C and panel D are AFM topographies after Aβ(1-40) was coincubated with gold nanoparticles with an average particle size of 6.0 nm and 3.6 nm respectively (modified with L-NIBC) for 48 h. And panel E is an AFM topography after Aβ(1-40) was coincubated with AuCs in an average particle size of 1.8 nm (modified with L-NIBC) for 48 h.

[1] = system: SH-SY5Y neuroblastoma cell line; assay: Aβ induced AD cell model, cell viability by CCK-8; type: cell-based; conditions: 0.01-20 ppm (L-NIBC 20 ppm); 20 μM Aβ(1-40), 24 h
Method: The cell viability was used as an index in the experiment of this embodiment. […] The cells used in the experiment were SH-SY5Y neuroblastoma cell line. […] Specific method:
1) SH-sy5y cells (cells had passed to the sixth generation) in logarithmic growth phase were diluted with complete medium (MEM+10% FBS+1% penicillin-streptomycin) to get a cell suspension in a density of 5×10^4/mL. The suspension was inoculated 200 μL per well into a 96-well plate, and cultivated in an incubator with 5% CO2 at 37° C. A sample was added when the cells attached to the wells.
2) 100 μL ligand-modified AuCs samples or ligand-modified gold nanoparticles samples, at different particle sizes and at concentrations of 0.04 ppm, 0.4 ppm, 4 ppm, 20 ppm, 40 ppm and 80 ppm respectively, which were dissolved by maintenance medium (MEM+2% FBS+1% penicillin-streptomycin) were added into the incubated suspension obtained from Step 1). After incubating in the incubator for 2 h, 100 μL 80 μM Aβ(1-40) was added, and then the mixture was incubated in the incubator for 24 h. […] The culture medium was removed, maintenance medium (MEM) containing 10% CCK-8 at 100 μL/well was added and was incubated for 4 h, the absorbance of each well at 450 nm was measured to reflect the prevention and treatment effects of ligand-modified AuCs on Aβ(1-40) lesion.

α-syn = molecular target: T2, α-syn (Homo sapiens, UniProt P37840); assay: In vitro α-syn aggregation kinetics (ThT fluorescent labeling); type: biochemical; conditions: L-NIBC only, 1.0 and 10.0 ppm; 35 μM α-syn, 37° C.
T2 construct: purchased Bachem Corp
Source text: Thioflavin T (abbreviation: ThT) is a dye for dyeing amyloid fibers specifically. […] When it encounters amyloid polypeptide or protein with a fiber structure, it will immediately couple with the amyloid polypeptides or proteins and its fluorescence intensity will increase exponentially. For this reason, ThT is widely used as markers to monitor amyloidosis of peptides or proteins. This embodiment utilizes ThT fluorescent labeling method to monitor the kinetics process of fibrosis aggregation of α-syn with the existence of AuCs. The specific experiment method was as follows:
Pretreatment of α-syn monomers: Freeze-dried powder (Bachem Corp.) of α-syn was dissolved in HFIP to obtain a 1 g/L α-syn solution. The solution was incubated at room temperature for 2-4 h after sealing, then blowed to dry HFIP by high-purity nitrogen in a fume hood. […]
Sample preparation and detection: Ligand-modified AuCs in different concentrations listed in Table 1 were added to 35 μM α-syn PBS solutions respectively, and incubated continuously in a 96-well plate at 37° C., by ThT fluorescent labeling method, and were monitored the fluorescence intensity by microplate reader once every 10 minutes. The kinetic process of α-syn aggregation was characterized through the change of fluorescence intensity of ThT. […]

effect on kinetics of α-syn aggregation (α-syn): did not have an obvious effect
Structure (SMILES): CC(C)C(=O)N[C@@H](CS)C(=O)O [L-NIBC, N-isobutyryl-L-cysteine]
Aβ(1-40) fibers in AFM topography (Aβ(1-40)): no obvious effect on the formation of Aβ(1-40) fibers
effect on cell viability in Aβ induced AD cell model [1]: did not improve cell viability
